EPA's ToxValDB 9.5 (doi:10.2903/j.efsa.2009.193r)
Converted amounts (≈) assume the structure as drawn.

Key:
[1] = system: Aphidius rhopalosiphi; assay: LR50; higher = less toxic; details: not reported; mortality
[2] = system: Tagia sp.; details: acute; duration: 14 days; mortality
[3] = system: Lepomis macrochirus; details: acute; duration: 96 hours; mortality
[4] = system: Apis mellifera; details: acute; duration: 48 hours; dermal; mortality
[5] = system: Coturnix japonica
[6] = system: Anas platyrhynchos; details: short-term; oral; feed; mortality
[7] = system: Rattus norvegicus
[8] = system: Folsomia candida; details: chronic/long-term; duration: 28 days; mortality

[O-][n+]1nc(-n2ccnc2)nc2ccc(Cl)cc21 [Triazoxide]
LR50 [1]: > 5.13 g/ha | LC50 [2]: > 1000 mg/kg | LC50 [3]: 0.077 µg/mL (≈ 0.311 µM) | LD50 [4]: > 200 µg/piece | LD50 ([5]; acute, oral, mortality): 90 mg/kg-day | NOEC ([5]; reproduction developmental, duration: 6 weeks): 11.7 mg/kg-day | LD50 [6]: 268 mg/kg-day | LD50 ([7]; acute, oral, mortality): 98 mg/kg-day | LOAEL ([7]; chronic, duration: 2 years, oral, diet, hematological): 0.05 mg/kg-day | NOAEL ([7]; reproduction developmental, organ weight): 0.11 mg/kg-day | NOAEL ([7]; reproduction developmental, reproduction): 2.04 mg/kg-day | NOAEL ([7]; short-term, duration: 28 days, oral, hematological): 1.5 mg/kg-day | NOAEL ([7]; subchronic, duration: 90 days, oral, hematological): 0.21 mg/kg-day | NOEC [8]: 500 mg/kg
